For orientation: MIC means the smallest concentration in the dilution series that meets the test's criterion for growth inhibition.

≈ marks a conversion by molar mass, not a printed value. Some results are limits rather than exact numbers.

One test deals with S. hemolyticus. Put plainly: MIC, test procedure as given supra. It counts as cell-based. The note with it: S. hemolyticus UC 152. As for the experimental part: (§1) The Minimal Inhibitory Concentration (MIC's) of both compounds Vs. aerobic bacteria is determined using a standard microplate broth-dilution method. Brain Heart Infusion (BHI-Difco) broth medium is used, and the plates are incubated at 37° C. for 20 hrs.
The Minimal Inhibitory Concentration (MIC's) of a representative number of the compounds prepared in Examples 2-8 follows. The test procedure is as given supra.
Molecule `CS[C@H]1O[C@H]([C@H](NC(=O)C2CCCCN2)[C@@H](C)O)[C@H](O)[C@H](O)[C@H]1O` (stereo partly shown) [U-60,492] displayed an MIC of 15.6 µg/mL (≈ 42.8 µM).

The same test, now with this note: S. hemolyticus UC 152; listed as 46,337.
As for `CS[C@H]1O[C@H]([C@H](NC(=O)C2CCCCN2)[C@H](C)Cl)[C@H](O)[C@H](O)[C@H]1O` (stereo partly shown) [U-46,337], the MIC was determined as 250 µg/mL (≈ 653 µM).

Staying with this test, now noted: S. hemolyticus UC 152; listed as 46,465.
For `CS[C@H]1O[C@H]([C@H](NC(=O)C2CCCCN2)[C@H](C)Cl)[C@H](O)[C@H](O)[C@H]1O` (stereo partly shown) [U-46,465], the MIC was under 1.0 µg/mL.

A further test relates to Proteus vulgaris. Put plainly: MIC vs. aerobic bacteria, microplate broth-dilution (BHI). It counts as cell-based. Conditions: P. vulgaris UC 93. On the procedure:
as §1
`CS[C@H]1O[C@H]([C@H](NC(=O)C2CCCCN2)[C@H](C)Cl)[C@H](O)[C@H](O)[C@H]1O` (stereo partly shown) [U-46,465] returned an MIC of 1000 µg/mL (≈ 2610 µM).

Still in this test, the particulars now being: Proteus vulgaris, UC93, 20 h, P. vulgaris UC 93; read-out: MIC.
Turning to `CS[C@H]1O[C@H]([C@H](NC(=O)C2CCCCN2)[C@H](C)Cl)[C@H](O)[C@H](O)[C@H]1O` (stereo partly shown) [U-46,337], the MIC was over 1000 µg/mL.

In a further test the test system is Streptococcus faecalis. Described as above. It counts as cell-based. Conditions: St. faecalis UC 694. On the procedure:
as §1
Molecule `CS[C@H]1O[C@H]([C@H](NC(=O)C2CCCCN2)[C@@H](C)O)[C@H](O)[C@H](O)[C@H]1O` (stereo partly shown) [U-60,492] yielded an MIC of over 1000 µg/mL.

Staying with this test, now noted: St. faecalis UC 694; listed as 46,337.
For the molecule `CS[C@H]1O[C@H]([C@H](NC(=O)C2CCCCN2)[C@H](C)Cl)[C@H](O)[C@H](O)[C@H]1O` (stereo partly shown) [U-46,337], the MIC is over 1000 µg/mL.

Staying with this test, now noted: St. faecalis UC 694; listed as 46,465.
Regarding `CS[C@H]1O[C@H]([C@H](NC(=O)C2CCCCN2)[C@H](C)Cl)[C@H](O)[C@H](O)[C@H]1O` (stereo partly shown) [U-46,465], the MIC was 3.9 µg/mL (≈ 10.2 µM).

Another test relates to Klebsiella pneumoniae. The description is as above. It counts as cell-based. Conditions: K. pneumoniae UC 58. As for the experimental part:
as §1
As for `CS[C@H]1O[C@H]([C@H](NC(=O)C2CCCCN2)[C@H](C)Cl)[C@H](O)[C@H](O)[C@H]1O` (stereo partly shown) [U-46,465], the MIC was found to be 500 µg/mL (≈ 1310 µM).

The test is the same for the next values; noted with them: Klebsiella pneumoniae, UC58, 20 h, K. pneumoniae UC 58; read-out: MIC.
As to `CS[C@H]1O[C@H]([C@H](NC(=O)C2CCCCN2)[C@H](C)Cl)[C@H](O)[C@H](O)[C@H]1O` (stereo partly shown) [U-46,337], the MIC was over 1000 µg/mL.

The next test deals with Diplococcus pneumoniae. The description is as above. It counts as cell-based. The note with it: D. pneumoniae UC 41. On the procedure: as §1
`CS[C@H]1O[C@H]([C@H](NC(=O)C2CCCCN2)[C@@H](C)O)[C@H](O)[C@H](O)[C@H]1O` (stereo partly shown) [U-60,492] registered an MIC of 31.2 µg/mL (≈ 85.6 µM).

The test is the same for the next values; noted with them: D. pneumoniae UC 41; listed as 46,337.
Consider `CS[C@H]1O[C@H]([C@H](NC(=O)C2CCCCN2)[C@H](C)Cl)[C@H](O)[C@H](O)[C@H]1O` (stereo partly shown) [U-46,337], for which the MIC was 250 µg/mL (≈ 653 µM).

The test is the same for the next values; noted with them: D. pneumoniae UC 41; listed as 46,465.
In turn, `CS[C@H]1O[C@H]([C@H](NC(=O)C2CCCCN2)[C@H](C)Cl)[C@H](O)[C@H](O)[C@H]1O` (stereo partly shown) [U-46,465] displayed a minimum inhibitory concentration (MIC) of under 1.0 µg/mL.

The test system of the next test is Escherichia coli. The description is as above. It counts as cell-based. Conditions: UC45, 20 h, E. coli UC 45, read-out: MIC. As for the experimental part:
as §1
Consider `CS[C@H]1O[C@H]([C@H](NC(=O)C2CCCCN2)[C@H](C)Cl)[C@H](O)[C@H](O)[C@H]1O` (stereo partly shown) [U-46,337], for which the MIC is over 1000 µg/mL.

The subject of the next test is Salmonella schottmuelleri. The test is described as above. Conditions: S. schottmuelleri UC 126. It counts as cell-based. On the procedure:
as §1
For `CS[C@H]1O[C@H]([C@H](NC(=O)C2CCCCN2)[C@H](C)Cl)[C@H](O)[C@H](O)[C@H]1O` (stereo partly shown) [U-46,465], the MIC turned out to be 1000 µg/mL (≈ 2610 µM).

Staying with this test, now noted: Salmonella, UC126, 20 h, S. schottmuelleri UC 126.
With `CS[C@H]1O[C@H]([C@H](NC(=O)C2CCCCN2)[C@H](C)Cl)[C@H](O)[C@H](O)[C@H]1O` (stereo partly shown) [U-46,337], the MIC is over 1000 µg/mL.

The next test relates to Pseudomonas aeruginosa. The description is as above. It counts as cell-based. Conditions: UC95, 20 h, Ps. aeruginosa UC 95, read-out: MIC. As for the experimental part:
as §1
Take `CS[C@H]1O[C@H]([C@H](NC(=O)C2CCCCN2)[C@H](C)Cl)[C@H](O)[C@H](O)[C@H]1O` (stereo partly shown) [U-46,337]: the MIC is over 1000 µg/mL.

Another test relates to Staphylococcus aureus. The description is as above. It counts as cell-based. The note with it: S. aureus UC 76; listed as 46,337.
For `CS[C@H]1O[C@H]([C@H](NC(=O)C2CCCCN2)[C@H](C)Cl)[C@H](O)[C@H](O)[C@H]1O` (stereo partly shown) [U-46,337], the MIC was 1000 µg/mL (≈ 2610 µM).

The test is the same for the next values; noted with them: S. aureus UC 76; listed as 46,465.
`CS[C@H]1O[C@H]([C@H](NC(=O)C2CCCCN2)[C@H](C)Cl)[C@H](O)[C@H](O)[C@H]1O` (stereo partly shown) [U-46,465] returned an MIC of 3.9 µg/mL (≈ 10.2 µM).

The test is the same for the next values; noted with them: S. aureus UC 570.
With `CS[C@H]1O[C@H]([C@H](NC(=O)C2CCCCN2)[C@@H](C)O)[C@H](O)[C@H](O)[C@H]1O` (stereo partly shown) [U-60,492], the MIC was over 1000 µg/mL.

Still in this test, the particulars now being: S. aureus UC 570; listed as 46,337.
Molecule `CS[C@H]1O[C@H]([C@H](NC(=O)C2CCCCN2)[C@H](C)Cl)[C@H](O)[C@H](O)[C@H]1O` (stereo partly shown) [U-46,337] had a minimal inhibitory concentration (MIC) of 1000 µg/mL (≈ 2610 µM).

Still in this test, the particulars now being: S. aureus UC 570; listed as 46,465.
Molecule `CS[C@H]1O[C@H]([C@H](NC(=O)C2CCCCN2)[C@H](C)Cl)[C@H](O)[C@H](O)[C@H]1O` (stereo partly shown) [U-46,465] had an MIC of 31.2 µg/mL (≈ 81.5 µM).

The same test, now with this note: S. aureus UC 746.
For `CS[C@H]1O[C@H]([C@H](NC(=O)C2CCCCN2)[C@@H](C)O)[C@H](O)[C@H](O)[C@H]1O` (stereo partly shown) [U-60,492], the MIC worked out at 250 µg/mL (≈ 686 µM).

The same test, now with this note: S. aureus UC 746; listed as 46,337.
`CS[C@H]1O[C@H]([C@H](NC(=O)C2CCCCN2)[C@H](C)Cl)[C@H](O)[C@H](O)[C@H]1O` (stereo partly shown) [U-46,337] had an MIC of 1000 µg/mL (≈ 2610 µM).

Staying with this test, now noted: S. aureus UC 746; listed as 46,465.
For `CS[C@H]1O[C@H]([C@H](NC(=O)C2CCCCN2)[C@H](C)Cl)[C@H](O)[C@H](O)[C@H]1O` (stereo partly shown) [U-46,465], the MIC was 3.9 µg/mL (≈ 10.2 µM).

The values above are taken from US4310660A, “Lincomycin compounds” (The Upjohn Company, priority 1980, dated 1982).
